In PubChem BioAssay (NCI):
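Interpolation was linear, between the two tested concentrations surrounding the appropriate level; five concentrations were tested over 48 hours in 96-well plates. TGI is the concentration that stops growth completely.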

Experiments:
Test in all cases: inhibition of tumour cell growth, NCI panel, 48 h
[1] = system: CAKI-1 renal
[2] = system: COLO 205 colon
[3] = system: SK-MEL-2 melanoma
[4] = system: OVCAR-5 ovarian
[5] = system: SNB-78 CNS
[6] = system: A498 renal
[7] = system: NCI-H522 lung
[8] = system: HOP-92 NSCLC
[9] = system: RXF 393 renal
[10] = system: UO-31 renal
[11] = system: ACHN renal
[12] = system: OVCAR-8 ovarian
[13] = system: SF-268 CNS
[14] = system: HCT-15 colon
[15] = system: NCI-H23 lung
[16] = system: MALME-3M melanoma
[17] = system: U251 CNS
[18] = system: K-562 leukemia
[19] = system: NCI-H226 lung
[20] = system: RPMI-8226 leukemia
[21] = system: HOP-62 NSCLC
[22] = system: DLD-1 colon
[23] = system: SK-MEL-28 melanoma
[24] = system: SK-MEL-5 melanoma
[25] = system: OVCAR-3 ovarian
[26] = system: KM12 colon
[27] = system: RXF-631 renal
[28] = system: XF 498 CNS
[29] = system: SW-620 colon
[30] = system: LXFL 529 NSCLC
[31] = system: TK-10 renal
[32] = system: M19-MEL melanoma
[33] = system: SF-539 CNS
[34] = system: HCC-2998 colon
[35] = system: SK-OV-3 ovarian
[36] = system: SNB-19 CNS
[37] = system: HT29 colon
[38] = system: M14 melanoma
[39] = system: IGROV1 ovarian
[40] = system: CCRF-CEM leukemia
[41] = system: SF-295 CNS
[42] = system: LOX IMVI melanoma
[43] = system: HL-60(TB) leukemia
[44] = system: A549 NSCLC
[45] = system: OVCAR-4 ovarian
[46] = system: UACC-62 melanoma
[47] = system: SNB-75 CNS
[48] = system: DMS 273 small cell lung
[49] = system: MOLT-4 leukemia
[50] = system: SR leukemia
[51] = system: 786-0 renal
[52] = system: EKVX NSCLC
[53] = system: SN12C renal
[54] = system: NCI-H460 lung
[55] = system: UACC-257 melanoma
[56] = system: HOP-18 NSCLC
[57] = system: HCT-116 colon
[58] = system: DMS 114 small cell lung
[59] = system: KM20L2 colon

Measured: TGI

CC1=C(O)C(=O)C2C(=O)C1C(C)C2c1ccc(Cl)cc1 (configuration not stated)
> 100 µM: [1] | [2] | [3] | [4] | [5] | [6] | [7] | [8] | [9] | [10] | [11] | [12] | [13] | [14] | [15] | [16] | [17] | [18] | [19] | [20] | [21] | [22] | [23] | [24] | [25] | [26] | [27] | [28] | [29] | [30] | [31] | [32] | [33] | [34] | [35] | [36] | [37] | [38] | [39] | [40] | [41] | [42] | [43] | [44] | [45] | [46] | [47] | [48] | [49] | [50] | [51] | [52]

CCOC(=O)/C=C(\C)c1ccc(OC)cc1
> 100 µM: [1] | [2] | [3] | [4] | [5] | [6] | [8] | [53] | [9] | [54] | [10] | [11] | [12] | [13] | [14] | [15] | [16] | [17] | [55] | [19] | [20] | [22] | [23] | [24] | [26] | [56] | [28] | [29] | [57] | [30] | [31] | [33] | [34] | [36] | [58] | [37] | [38] | [39] | [59] | [41] | [42] | [43] | [44] | [45] | [47] | [48] | [50] | [52]

CCOC(=O)C(=O)Nc1c(C)cccc1C
> 100 µM: [1] | [2] | [3] | [4] | [5] | [8] | [53] | [9] | [54] | [10] | [11] | [12] | [13] | [14] | [15] | [16] | [17] | [55] | [19] | [20] | [21] | [22] | [23] | [25] | [26] | [56] | [28] | [29] | [57] | [30] | [31] | [32] | [33] | [34] | [35] | [36] | [58] | [37] | [38] | [39] | [59] | [41] | [42] | [44] | [45] | [46] | [47] | [48] | [51] | [52]

CN=S(=O)(c1ccccc1)c1ccccc1
> 100 µM: [1] | [2] | [3] | [4] | [5] | [6] | [7] | [8] | [53] | [9] | [54] | [10] | [11] | [12] | [13] | [14] | [15] | [16] | [17] | [55] | [18] | [19] | [20] | [21] | [22] | [23] | [24] | [25] | [26] | [56] | [28] | [29] | [57] | [31] | [32] | [33] | [34] | [35] | [36] | [58] | [37] | [38] | [39] | [59] | [40] | [41] | [42] | [43] | [44] | [45] | [46] | [47] | [48] | [49] | [50] | [51] | [52]
